The text below walks through data of patent publication US6984659B2, “2-pyrrolidinone derivatives substituted at position 4 for reducing the extracellular glutamate level” (priority 1997, dated 2006).

“And” between values parts separate entries of the source, which are not always exact repeats. Equal entries are not always repeated. “Also recorded” adds a separate entry of the source.

In test [1] the test system is neuronal intranuclear inclusions. Description: mouse model of Huntington's disease, immunohistochemistry of ubiquitinated neuronal intranuclear inclusions. The note with it: for mean hippocampal areas of neuronal intranuclear inclusions / mean neocortical areas of neuronal intranuclear inclusions / mean striatal areas of neuronal intranuclear inclusions: per individual mouse, 100 mg/kg*day, frozen brain sections, 100 mg/kg. Format: in vivo. The text has this: (§1) Mice transgenic for exon 1 of the human HD gene (line R 6/2), carrying CAGn=115-156 expansions, develop pronounced neuronal intranuclear inclusions, containing the proteins huntington and ubiquitin prior to the characteristic neurological phenotype with bradykinesia and seizures corresponding to the juvenile type of HD (Davies et al. 1997). The life time of these mice is up to 17 weeks. It was investigated whether gabapentin (GBP) and its derivative gabapentin-lactam (GBP-L, Jehle et al. 2000), may exert neuroprotective effects by using a battery of behavioral tests selected to measure motor aspects of fore-and hindlimb coordination and balance. In a first series of experiments mice were treated with GBP-L (100 mg/kg*day, 8 mice) and vehicle only (B mice) from the 6th week of their life until death using Alzet pumps implanted subcutaneously and delivering the test compounds systemically and continuously for up to four weeks. Empty Alzet pumps were repeatedly replaced. Animals were tested twice weekly by walking on a balance beam (width: 5 and 14 mm, Carter et al. 1999) up to week 15.5. A second series of experiments involved mice again treated with GBP-L (100 mg/kg*clay, 7 mice) and mice treated with GBP (100 mg/kg*day, 8 mice) from the 6th week of their life until death with week 17 being the maximum endpoint. In addition, immunohistochemical studies, using a monoclonal mouse antibody raised against ubiquitin, were done to analyse areas of ubiquitinated nuclear inclusions in three brain regions (hippocampus, neocortex and striatum) in a blinded fashion in order to compare mice treated with GBP-L or GBP.
Three mice per group were evaluated. The mean regional area of neuronal intranuclear inclusions was calculated (μm^2) for each mouse. These means were compared between regions and between treatment groups.

In test [2] the test system is Mice transgenic for exon 1 of the human HD gene (line R 6/2). Description: mouse model of Huntington's disease, walking on a balance beam. The test is classed as in vivo.
Description: as §1
This effect (E), as measured by the time necessary to pass the balance beam, was evaluated in each single mouse according to the function E=be^a time, yielding individual graphs with parameter estimates for a and b. The area under the curve, representing the motor ability of an individual mouse, was weighted by the life of this mouse. For instance, the area under the curve of a mouse which died at week 12.5 was divided by the ratio 12.5/15.5 in order to allow for possibly different life times of the mice.
Note that the observation period of the second series of experiments was 17 instead of 15.5 weeks only in the first set. Accordingly, the weighting by the life time now used the divisor 17 Instead of 15.5.

For test [3], the system named is electrically evoked release of [^3H]-NA. Kind of test: electrically evoked release of [^3H]-NA from rat brain slices. The test is classed as cell-based. The note with it: quasi-physiological release. From the text: Note that the deviations indicate confidence intervals (CI95), not standard errors. In this model, GBP and its lactam seem equipotent. GBP and GBP-L are ineffective on the quasi-physiological, electrically evoked release of [^3H]-NA from both rat and human brain slices (not shown).

For test [4], the system named is ischemia-induced [^3H]-Glu release. Description: in vitro ischemia model: ischemia-induced [^3H]-Glu release from [^3H]-Gln-loaded hippocampal slices. Format: cell-based, rat. How it is done: Rat hippocampus slices 350 μm thick were incubated in 3 ml of medium at 37° C. for 60 minutes. The medium contained 2 μM [^3H]-Gln to label the endogenous Gln pool. The slices then synthesized Glu. The slices were washed and then exposed to superfusion with a buffer for 50 minutes. At 5-minute intervals, [^3H]-Glu was extracted by anion exchange chromatography from a total of 15 superfusion samples and was measured by liquid scintillation counting. The fractional rates of [^3H]-Glu release were calculated from the [^3H]-Glu extracted from the superfusion samples and from the tissue slices after the superfusion.
The model of endogenously produced [^3H]-Glu was likewise used to generate ischemic conditions in vitro. To make a slice “quasi ischemic”, oxygen and glucose were replaced by nitrogen and sucrose during the superfusion. Sucrose was used in place of […] glucose in order to maintain the osmolarity of the superfusion fluid. It is known that sucrose cannot be cleaved in vitro to glucose and fructose. Unlike the tests in which the [^3H]-Glu release was induced electrically, and in order to simulate an ischemia as well as possible, the [^3H]-Glu release was carried out during the incubation and superfusion at 37° C.
Slices of 350 μm thickness were incubated at 37° C. for 60 min in 3 ml medium containing 2 μM [^3H]-Gln in order to label endogenous Gln pools. These slices subsequently were synthesizing Glu. The slices were washed and then superfused for 50 min with buffer. [^3H]-Glu was extracted from 15 5-min-superfusion samples and from the slices by anion-exchange chromatography and measured by liquid scintillation counting. Fractional rates of [^3H]-Glu release were calculated from extracted [^3H]-Glu in the superfusion samples and in the tissue slices obtained after superfusion.
To reproduce in vitro ischemic conditions the model of endogenously formed [^3H]-Glu was also used. To make a slice “quasi-ischemic”, oxygen was replaced by nitrogen and glucose was replaced by sucrose during superfusion. Sucrose was used instead of glucose in order to maintain the osmolarity of the superfusion fluid without being cleaved into glucose and fructose in vitro. At variance to the experiments on electrically evoked [^3H]-Glu release and in order to mimic ischemia as close as possible the experiments on ischemia-induced [^3H]-Glu release were performed at 37° C. throughout incubation and superfusion.
To assess the potency of glibenclamide concentration-inhibition curves of GBP-L on ischemia-induced [^3H]-Glu efflux were obtained in the absence and presence of 0.1 μM glibenclamide (see Jehle et al. 2000).

Test [5] relates to potassium-evoked release of [^3H]-noradrenaline. The note with it: rat neocortex slices; Freiman et al. 2001, FIG. 1.0; cited from earlier work.
Test [6] relates to electrically evoked release of Glu. Kind of test: electrically evoked [^3H]-Glu release from [^3H]-Gln-loaded hippocampus slices. The conditions noted are these: 540 pulses of 4 ms, 6 Hz, 60 mA, room temperature, 100 μM PDC, added 15 min before second stimulation. The test is classed as cell-based, rat.
The mark [7] stands for this setting: second series, 100 mg/kg*day, observation period 17 weeks.
Where [8] appears, read: O2 replaced by N2, glucose by sucrose, 37° C., 3 μM PDC.

Turning to `NCC1(CC(=O)O)CCCCC1` [GBP, gabapentin, reference compound], in test [1], the “mean hippocampal areas of neuronal intranuclear inclusions” value is 8.78 μm^2 and 8.93 μm^2 and 8.26 μm^2; the “mean neocortical areas of neuronal intranuclear inclusions” value is 5.91 μm^2 and 5.94 μm^2 and 9.60 μm^2; the “mean striatal areas of neuronal intranuclear inclusions” value is 6.43 μm^2 and 7.27 μm^2 and 3.84 μm^2. Further, in test [2] (setting [7]), the “mean weighted area representing the motor ability on the 5 mm beam” value turned out to be 77.33 and the “mean weighted area representing the motor ability on the 14 mm beam” value amounted to 65.71. Moreover, in test [3], the “electrically evoked release of [^3H]-NA (in words)” value is “ineffective”. The “diminution of ischemia-induced [^3H]-Glu efflux” value in test [4] came to 35.5%. In test [5], the “potassium-evoked release of [^3H]-noradrenaline (in words)” value is recorded as “inhibitory effects”.

On to `O=C1CC2(CCCCC2)CN1` [GBP-L, 8-azaspiro[5,4]decan-9-one], for which, in test [1], the “mean hippocampal areas of neuronal intranuclear inclusions” value is 4.47 μm^2 and 4.01 μm^2 and 3.61 μm^2; the “mean neocortical areas of neuronal intranuclear inclusions” value was 3.70 μm^2 and 2.96 μm^2 and 2.65 μm^2; the “mean striatal areas of neuronal intranuclear inclusions” value is 3.52 μm^2 and 4.20 μm^2 and 3.83 μm^2. In addition, the “area of neuronal intranuclear inclusions in hippocampus, striatum and neocortex compared to GBP mice (in words)” value in test [1] (three mice per group) was “markedly and significantly reduced”. Moreover, the “motor abilities compared to vehicle animals (in words)” value in test [2] (first series, 100 mg/kg*day) was “markedly and significantly improved”. Besides, the “mean weighted area representing the motor ability on the 5 mm beam” value in test [2] (first series, 100 mg/kg*day s.c. Alzet pumps from 6th week, up to week 15.5, vehicle 44.60) is 26.64. The “mean weighted area representing the motor ability on the 14 mm beam” value in test [2] (first series, 100 mg/kg*day, up to week 15.5, vehicle 31.54) amounted to 17.16. Moreover, in test [2] (setting [7]), the “mean weighted area representing the motor ability on the 5 mm beam” value came to 43.75 and the “mean weighted area representing the motor ability on the 14 mm beam” value was 30.46. Further, the “electrically evoked release of [^3H]-NA (in words)” value in test [3] was “ineffective”. Moreover, the “electrically evoked release of Glu (in words)” value in test [6] is listed as “seems not to be influenced”. In addition, the “electrically evoked release of Glu (in words)” value in test [6] (listed as gabapentin lactam) is given as “not influenced; also recorded: unaffected”. In addition, in test [4] (setting [8]), the “ischemia-induced [^3H]-Glu output (in words)” value is “reduces the neurotoxic [^3H]-Glu output significantly” and the “reduction of ischemia-induced [^3H]-Glu release (area from t=15 min)” value was found to be 42.5%.
